System: SSNHL after acoustic trauma
Test: SSNHL model: acoustic trauma (120 dB octave band noise), ABR and DPOAE audiometry
Assay type: in vivo, male Wistar rats
Protocol: All experiments were performed using 7-week-old male Wistar rats (CERJ, Le Genest, France) in accordance with the French Ministry of Agriculture regulations and European Community Council Directive no. 86/609/EEC, OJL 358. The rats were fed a standard diet ad libitum and maintained on a 12 hours' light-dark cycle.
Auditory Brainstem Reponses (ABR) and Distortion Product Otoacoustic Emissions (DPOAE) were recording using a RZ6 Auditory Workstation (Tucker-Davis Technologies, Alachua, Fla., USA) with animals deeply anesthetized using 90 mg/kg ketamine and 10 mg/kg xylazine and placed on a 35° C. recirculating heating pad inside a sound attenuating cubicle (Med Associates Inc., St. Albans, Vt., USA) throughout the experiment.
For ABR recordings, three stainless steel needle electrodes were placed subdermally over the vertex, the right mastoid and right hind leg of each animal. Tone-pips (5 msec duration presented at a rate of 21/s) at 8, 16 and 24 kHz were delivered to the right ear using a calibrated MF-1 speaker in closed-field configuration (Tucker-Davis Technologies, Alachua, Fla., USA) at attenuating intensity until no reproducible response could be recorded. Close to the ABR threshold, the responses to 1000 acoustic stimuli in 5 dB steps were averaged. Responses were low-pass filtered at 3 kHz.
DPOAEs were recorded and using ER10B+ Low Noise DPOAE microphone (Etymotic Research, Inc., Elk Grove Village, Ill., USA) with acoustic stimuli delivered by two calibrated MF-1 speakers in closed-field configuration (Tucker-Davis Technologies, Alachua, Fla., USA). DPOAEs were recorded at fixed stimulus levels (L1=L2=70 dB SPL), with an f2/f1 ratio of 1.2. Responses were recorded at 4, 8, 16, 24 and 32 kHz.
Animals were exposed to 120 dB octave band noise (8-16 kHz) for 2 hours in groups of 4 rats, placed in individual compartments of a custom built circular cage placed on a 30-cm diameter platform rotating at 3 turns/minute (Aqila Innovation, Valbonne, France). The calibrated octave band noise generated by the RZ6 SigGen software was further amplified by a Crown D-75 amplifier in bridge mode (Crown Audio, Elkhart, Ind., USA) and delivered by four Beyma CPI6 compression tweeters (Acustica Beyma S. L., Moncada, Valencia, Spain) positioned 39 cm above the rotating platform, each 10 cm from the platform center.
The ability of the racemic and two enantiomers of azasetron hydrochloride to reduce SSNHL after acoustic trauma was evaluated in a randomized, vehicle-controlled study with 7 weeks old male Wistar rats. Rats were randomized to receive 4.22 mg/kg of the racemic, two enantiomers of azasetron or vehicle control (physiological saline) by intraperitoneal injection immediately after acoustic trauma, followed by daily dosing for a total of 14 days. Two days prior to acoustic trauma, baseline audiometric readings using auditory brainstem response (ABR) (8, 16, and 24 kHz) were recorded for each animal. Animals were exposed to 120-dB octave-band noise (8-16 kHz) for 2 hours to induce acoustic trauma.
The ability of the (+)-enantiomer of azasetron hydrochloride to reduce SSNHL after acoustic trauma was evaluated in a randomized, vehicle-controlled study in male Wistar rats, 7 weeks of age. Rats were randomized to receive 5, 10, or 20 mg/kg of the (+)-enantiomer of azasetron hydrochloride or vehicle control (physiological saline) by oral gavage immediately after acoustic trauma, followed by daily dosing for a total of 14 days. Two days prior to acoustic trauma, baseline audiometric readings using auditory brainstem response (ABR) (8, 16, and 24 kHz) and distortion-product otoacoustic emissions (DPOAE) (4, 8, 16, 24, and 32 kHz) were recorded for each animal. Post-trauma audiometry recordings were conducted at 14 days.
The ability of the racemic azasetron hydrochloride by oral administration to reduce SSNHL after acoustic trauma was also evaluated. […]

[1] = 10 mg/kg oral gavage daily 14 days after acoustic trauma
[2] = 10 mg/kg oral gavage daily 14 days, baseline to day 14
[3] = 20 mg/kg oral gavage daily 14 days, baseline to day 14

## CN1C(=O)COc2c(C(=O)NC3CN4CCC3CC4)cc(Cl)cc21 (racemic) [Racemic azasetron, N-(1-azabicyclo[2.2.2]octan-8-yl)-6-chloro-4-methyl-3-oxo-1,4-benzoxazine-8-carboxamide]
[1]
  protective effect on ABR thresholds: small tendency towards a protective effect
  protective effect on DPOAE amplitude loss: small tendency towards a protective effect

## CN1C(=O)COc2c(C(=O)N[C@H]3CN4CCC3CC4)cc(Cl)cc21 [(+)-azasetron]
4.22 mg/kg intraperitoneal, daily for 14 days after acoustic trauma, 8, 16, 24 kHz
  ABR threshold shifts compared with racemic azasetron, (−)-enantiomer and vehicle: reduced ABR threshold shifts more than racemic azasetron or (−)-enantiomer
[2]
  mean improvement in hearing (ABR): 22.3 dB
  mean reduction of ABR threshold shifts: 35.1%
[3]
  mean improvement in hearing (ABR): 19.4 dB
  mean reduction of ABR threshold shifts: 30.5%
  mean reduction of DPOAE amplitude loss: 51.2%
10- and 20-mg/kg oral doses
  reduction of hearing loss (average) by ASLHA criteria versus vehicle control: from moderately severe (56 to 70 dB) to mild/moderate (26 to 40 dB/41 to 55 dB)

— US11612605B2, “(+)-azasetron for use in the treatment of ear disorders” (SENSORION, priority 2016, dated 2023)
